Where “and” joins values, the source holds several entries; their conditions need not be identical. Equal entries are not always repeated. Where two headings read alike, the source gives them in different places.
How the values were obtained:
[1] = Pharmacokinetics after single oral administration to rats; format: in vivo, rat; conditions: for AUC(0-inf) / Cmax / Tmax / AUC(0-t) / half-life: po; for half-life: read-out: Terminal t1/2, Mean (converted); for AUC: read-out: AUC48
Method: Experiments were performed at ChemPartner, Shanghai, China and approved by Institutional Ethics Committee (IEC) of ChemPartner. Male Wistar 10–12 weeks old rats with body weights of 185–220 g and male New Zealand rabbits with body weights of 2.0–2.3 kg were purchased from Shanghai SLAC Laboratory Animal Co., Ltd. MT-SYK-03 was administered to the three groups of rats (six rats per group) via oral gavage at 10 mL/kg concentration, and in rabbits 5 mL/kg concentration. Blood samples were kept on ice and centrifuged (2000 g, 4 ℃, 5 min) within 15 min post sampling.

SYK = SYK (Homo sapiens, UniProt P43405); experiment: SYK inhibition luminescent assay; format: biochemical; set-up: 6xHis; made in house; host or cells: Sf9
Method: Luminescent assay was performed at A. N. Bakh Institute of Biochemistry (Moscow, Russia). Recombinant 6xHis-SYK kinase (expressed in Sf9 cells) was obtained as described previously. […] After incubation (20 min) Kinase-Glo reagent (Promega) was added. The luminescence was detected using the Fusion Universal Microplate Analyzer (PerkinElmer USA).

[2] = test system: B cells in human whole blood; experiment: B-cell activation in human whole blood; format: cell-based; conditions: anti-IgD stimulation, 16 h, read-out: IC50, BCR-dependent (anti-IgD) activation of B cells
Method: The whole blood assay was performed at N. N. Blokhin National Medical Research Center of Oncology (NMRCO), Russia and approved by NMRCO ethics committee. Informed consent was obtained from all subjects. Red blood cells were lysed by incubation with NH4Cl buffer (0.8% NH4Cl and 0.1% EDTA in distilled water) for 5 min at 37 °C and were precipitated by centrifugation (1500 rpm). The precipitates were resuspended in RPMI-1640 with 10% human serum and 2 mM L-glutamine, after that the cells were again precipitated by analogous centrifugation and resuspended in RPMI-1640. […] Blood was then stained directly with PE-conjugated anti-CD69 (dilution 1:10) and APC-conjugated anti-CD19 (dilution 1:20) antibodies for 20 min at 4 °C. After that cells were precipitated by centrifugation (1500 rpm, 4 °C) and washed twice with phosphate-buffered saline (PBS). The cells were resuspended in PBS containing 1% BSA and subjected to flow cytometry on BD FACS Canto II (BD Biosciences, USA). The number of active cells was estimated as a ratio of CD69-positive cells bearing a marker of CD19 cells, or as a mean fluorescence intensity (MFI) of CD69 + cells after gating on the CD19-positive cells. For dose–response curve see Fig. S2.

[3] = male, Wistar, rat, plasma, rats, single oral 30 mg/kg
[4] = male, Wistar, rat, plasma, rats, single oral 100 mg/kg
[5] = male, Wistar, rat, plasma, rats, single oral 200 mg/kg

With `COc1cc(Nc2ncnc(Nc3cc4c(cn3)NC(=O)C(C)(C)O4)n2)cc(OC)c1OC` [MT-SYK-03] the concentration at 2 h ([1]; male, Wistar, rat, plasma, oral, 200 mg/kg, Table S8, 200 mg/kg PO, male Wistar rats, 2 h, mean of Rat#13-18, read-out: Plasma concentration, Mean) was 1040 ng/mL, the concentration at 4 h ([1]; male, Wistar, rat, plasma, oral, 200 mg/kg, Table S8, 200 mg/kg PO, male Wistar rats, 4 h, mean of Rat#13-18) was 725 ng/mL and the concentration at 8 h ([1]; male, Wistar, rat, plasma, oral, 200 mg/kg, Table S8, 200 mg/kg PO, male Wistar rats, 8 h, mean of Rat#13-18) was 206 ng/mL. For the same compound, the concentration at 24 h ([1]; male, Wistar, rat, plasma, oral, 200 mg/kg, Table S8, 200 mg/kg PO, male Wistar rats, 24 h, mean of Rat#13-18) was 4.99 ng/mL, the concentration at 48 h ([1]; male, Wistar, rat, plasma, oral, 200 mg/kg, Table S8, 200 mg/kg PO, male Wistar rats, 48 h, mean of Rat#13-18, read-out: Plasma concentration, Mean) was 5.44 ng/mL and the AUC(0-inf) ([1]; male, Wistar, rat, plasma, 30 mg/kg, rats, single oral 30 mg/kg, read-out: AUCinf) was 2420 ± 945 ng·h/mL. The Cmax ([1]; male, Wistar, rat, plasma, 30 mg/kg, rats, single oral 30 mg/kg, read-out: Cmax) was 416 ± 114 ng/mL, the Tmax ([1]; male, Wistar, rat, plasma, 30 mg/kg, rats, single oral 30 mg/kg, read-out: Tmax) was 1.5 ± 0.548 h and the Tmax ([1]; male, Wistar, rat, plasma, 100 mg/kg, Table S6, 100 mg/kg PO, male Wistar rats, plasma, individual Rat#1-6, read-out: Tmax) was 2 h. The AUC(0-inf) ([1]; male, Wistar, rat, plasma, 100 mg/kg, Table S6, 100 mg/kg PO, male Wistar rats, plasma, mean of Rat#1-6, read-out: AUCINF, Mean) was 2420 ng·h/mL, the AUC(0-t) ([1]; male, Wistar, rat, plasma, 100 mg/kg, Table S6, 100 mg/kg PO, male Wistar rats, plasma, mean of Rat#1-6, read-out: AUClast, Mean) was 2340 ng·h/mL and the Cmax ([1]; male, Wistar, rat, plasma, 100 mg/kg, Table S6, 100 mg/kg PO, male Wistar rats, plasma, mean of Rat#1-6, read-out: Cmax, Mean) was 416 ng/mL. It also gave a half-life ([1]; male, Wistar, rat, plasma, 100 mg/kg, Table S6, 100 mg/kg PO, male Wistar rats, plasma, mean of Rat#1-6) of 5.53 h, a Tmax ([1]; male, Wistar, rat, plasma, 100 mg/kg, Table S6, 100 mg/kg PO, male Wistar rats, plasma, mean of Rat#1-6, read-out: Tmax, Mean) of 1.5 h and an AUC(0-inf) ([1]; male, Wistar, rat, plasma, 100 mg/kg, Table S7, 100 mg/kg PO, male Wistar rats, plasma, individual Rat#7-12, read-out: AUCINF) of 4250 ng·h/mL. The AUC(0-t) ([1]; male, Wistar, rat, plasma, 100 mg/kg, Table S7, 100 mg/kg PO, male Wistar rats, plasma, individual Rat#7-12, read-out: AUClast) was 4240 ng·h/mL, the Cmax ([1]; male, Wistar, rat, plasma, 100 mg/kg, Table S7, 100 mg/kg PO, male Wistar rats, plasma, individual Rat#7-12, read-out: Cmax) was 822 ng/mL and the Tmax ([1]; male, Wistar, rat, plasma, 100 mg/kg, Table S7, 100 mg/kg PO, male Wistar rats, plasma, individual Rat#7-12, read-out: Tmax) was 1 h. The AUC(0-inf) ([1]; male, Wistar, rat, plasma, 100 mg/kg, Table S7, 100 mg/kg PO, male Wistar rats, plasma, mean of Rat#7-12, read-out: AUCINF, Mean) was 4270 ng·h/mL, the AUC(0-t) ([1]; male, Wistar, rat, plasma, 100 mg/kg, Table S7, 100 mg/kg PO, male Wistar rats, plasma, mean of Rat#7-12, read-out: AUClast, Mean) was 4260 ng·h/mL and the Cmax ([1]; male, Wistar, rat, plasma, 100 mg/kg, Table S7, 100 mg/kg PO, male Wistar rats, plasma, mean of Rat#7-12, read-out: Cmax, Mean) was 864 ng/mL. The half-life ([1]; male, Wistar, rat, plasma, 100 mg/kg, Table S7, 100 mg/kg PO, male Wistar rats, plasma, mean of Rat#7-12) was 4.06 h, the Tmax ([1]; male, Wistar, rat, plasma, 100 mg/kg, Table S7, 100 mg/kg PO, male Wistar rats, plasma, mean of Rat#7-12, read-out: Tmax, Mean) was 1 h and the AUC(0-inf) ([1]; male, Wistar, rat, plasma, 100 mg/kg, rats, single oral 100 mg/kg, read-out: AUCinf) was 4270 ± 608 ng·h/mL. The Cmax ([1]; male, Wistar, rat, plasma, 100 mg/kg, rats, single oral 100 mg/kg, read-out: Cmax) was 864 ng/mL and 1.42 µM, the Tmax ([1]; male, Wistar, rat, plasma, 100 mg/kg, rats, single oral 100 mg/kg, read-out: Tmax) was 1 h and the AUC(0-inf) ([1]; male, Wistar, rat, plasma, 200 mg/kg, Table S8, 200 mg/kg PO, male Wistar rats, plasma, individual Rat#13-18, read-out: AUCINF) was 7500 ng·h/mL. It also gave an AUC(0-t) ([1]; male, Wistar, rat, plasma, 200 mg/kg, Table S8, 200 mg/kg PO, male Wistar rats, plasma, individual Rat#13-18, read-out: AUClast) of 7480 ng·h/mL, a Cmax ([1]; male, Wistar, rat, plasma, 200 mg/kg, Table S8, 200 mg/kg PO, male Wistar rats, plasma, individual Rat#13-18, read-out: Cmax) of 1180 ng/mL and a Tmax ([1]; male, Wistar, rat, plasma, 200 mg/kg, Table S8, 200 mg/kg PO, male Wistar rats, plasma, individual Rat#13-18, read-out: Tmax) of 2 h. For the same compound, the AUC(0-inf) ([1]; male, Wistar, rat, plasma, 200 mg/kg, Table S8, 200 mg/kg PO, male Wistar rats, plasma, mean of Rat#13-18, read-out: AUCINF, Mean) was 7320 ng·h/mL, the AUC(0-t) ([1]; male, Wistar, rat, plasma, 200 mg/kg, Table S8, 200 mg/kg PO, male Wistar rats, plasma, mean of Rat#13-18, read-out: AUClast, Mean) was 7270 ng·h/mL and the Cmax ([1]; male, Wistar, rat, plasma, 200 mg/kg, Table S8, 200 mg/kg PO, male Wistar rats, plasma, mean of Rat#13-18, read-out: Cmax, Mean) was 1280 ng/mL. The half-life ([1]; male, Wistar, rat, plasma, 200 mg/kg, Table S8, 200 mg/kg PO, male Wistar rats, plasma, mean of Rat#13-18) was 5.08 h, the Tmax ([1]; male, Wistar, rat, plasma, 200 mg/kg, Table S8, 200 mg/kg PO, male Wistar rats, plasma, mean of Rat#13-18, read-out: Tmax, Mean) was 1.33 h and the AUC(0-inf) ([1]; male, Wistar, rat, plasma, 200 mg/kg, rats, single oral 200 mg/kg, read-out: AUCinf) was 7320 ± 1460 ng·h/mL. The Cmax ([1]; male, Wistar, rat, plasma, 200 mg/kg, rats, single oral 200 mg/kg, read-out: Cmax) was 1280 ng/mL and 2.1 µM, the Tmax ([1]; male, Wistar, rat, plasma, 200 mg/kg, rats, single oral 200 mg/kg, read-out: Tmax) was 1.33 ± 0.516 h and the k el [1, 3] was 4.44e-05 s⁻¹. For the same compound, the AUC [1, 3] was 2340 ± 979 ng·h/mL, the k el [1, 4] was 5.28e-05 s⁻¹ and the AUC [1, 4] was 4260 ± 621 ng·h/mL. The k el [1, 5] was 4.72e-05 s⁻¹, the AUC [1, 5] was 7270 ± 1490 ng·h/mL and the “Average plasma concentration after administration in rats” value ([1]; rats, PO) was 200 to 700 nM. The MRT24 ([1]; rats, single oral 30 mg/kg) was 4.26 ± 0.57 h, the τ1/2 ([1]; rats, single oral 30 mg/kg) was 5.53 ± 2.38 h and the MRT24 ([1]; rats, single oral 100 mg/kg) was 4.12 ± 0.56 h. For the same compound, the τ1/2 ([1]; rats, single oral 100 mg/kg) was 4.06 ± 1.49 h, the MRT24 ([1]; rats, single oral 200 mg/kg) was 4.89 ± 1.63 h and the τ1/2 ([1]; rats, single oral 200 mg/kg) was 5.08 ± 2.39 h. For the same compound, the IC50 (SYK; read-out: IC50, luminescent assay) was 23 nM, the IC50 (SYK; span of luminescent and radiometric assays, read-out: IC50 (SYK), as given in Figure 1c) was 14 nM and 23 to 40 nM and the IC50 [2] was 550 nM.

Source: article PMC8632988, “Inhibition of SYK and cSrc kinases can protect bone and cartilage in preclinical models of osteoarthritis and rheumatoid arthritis” (Scientific Reports, 2021)
